Assays:
[1] = target: T1, COX-1 (Homo sapiens, UniProt P23219); test: COX-1 activity in human whole blood (TXB2, calcium ionophore A23187); assay type: cell-based; details: 1 h at 37° C., TXB2 ELISA
T1 construct: Fresh blood from healthy volunteers; endogenous in cells; host or cells: fresh heparinized human whole blood stimulated with calcium ionophore A23187
Experimental: For the COX-1 activity determination, 500 μl aliquots of blood were incubated with either 5 μl vehicle (dimethylsulphoxide) or 5 μl of a test compound for 1 h at 37° C. […] Plasma was separated by centrifugation (10 min at 13000 rpm) and kept at −30° C. until TXB2 levels were measured using an enzyme immunoassay kit (ELISA). The effect of the compounds were evaluated by incubating each compound at five to six different concentrations with triplicate determinations. IC50 values were obtained by non-linear regression using InPlot, GraphPad software on an IBM computer.

[2] = target: T2, COX-2 (Homo sapiens, UniProt P35354); test: COX-2 activity in human whole blood (PGE2, LPS-induced); assay type: cell-based; details: for IC50: human whole blood, LPS 10 μg/ml 24 h at 37° C., PGE2 ELISA; for Ratio COX-1/COX-2: ratio of whole blood IC50 values
T2 construct: incubated in the presence of LPS (10 μg/ml) for 24 h at 37° C. in order to induce The COX-2 expression; endogenous in cells; host or cells: fresh heparinized human whole blood, COX-2 induced with LPS for 24 h
T2 sequence (P35354 18-604): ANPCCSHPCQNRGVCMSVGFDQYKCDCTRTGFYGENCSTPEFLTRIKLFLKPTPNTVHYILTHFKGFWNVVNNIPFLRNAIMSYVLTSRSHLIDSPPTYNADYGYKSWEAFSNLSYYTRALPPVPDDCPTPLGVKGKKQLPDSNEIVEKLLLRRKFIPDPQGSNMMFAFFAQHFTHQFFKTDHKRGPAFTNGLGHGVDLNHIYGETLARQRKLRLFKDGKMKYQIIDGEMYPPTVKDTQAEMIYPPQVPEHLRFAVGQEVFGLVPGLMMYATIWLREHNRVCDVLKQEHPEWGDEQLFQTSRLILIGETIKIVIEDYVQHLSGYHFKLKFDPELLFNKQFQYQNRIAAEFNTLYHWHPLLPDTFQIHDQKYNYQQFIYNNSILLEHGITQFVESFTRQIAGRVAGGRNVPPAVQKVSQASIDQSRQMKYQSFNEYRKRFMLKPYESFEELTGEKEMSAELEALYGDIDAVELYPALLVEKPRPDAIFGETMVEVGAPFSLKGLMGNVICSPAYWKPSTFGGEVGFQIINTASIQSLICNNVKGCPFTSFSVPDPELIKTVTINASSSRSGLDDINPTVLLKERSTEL
Experimental: Plasma was separated by centrifugation (10 min at 13000 rpm.) and kept at −30° C. until PGE2 levels were measured using an enzyme immunoassay kit (ELISA). The effects of inhibitors were studied by incubating each compound (5 μl aliquots) at five to six different concentrations with triplicate determinations in the presence of LPS for 24 hours. IC50 values were obtained by non-linear regression using InPlot, GraphPad software on an IBM computer.

T1 sequence (P23219 24-599): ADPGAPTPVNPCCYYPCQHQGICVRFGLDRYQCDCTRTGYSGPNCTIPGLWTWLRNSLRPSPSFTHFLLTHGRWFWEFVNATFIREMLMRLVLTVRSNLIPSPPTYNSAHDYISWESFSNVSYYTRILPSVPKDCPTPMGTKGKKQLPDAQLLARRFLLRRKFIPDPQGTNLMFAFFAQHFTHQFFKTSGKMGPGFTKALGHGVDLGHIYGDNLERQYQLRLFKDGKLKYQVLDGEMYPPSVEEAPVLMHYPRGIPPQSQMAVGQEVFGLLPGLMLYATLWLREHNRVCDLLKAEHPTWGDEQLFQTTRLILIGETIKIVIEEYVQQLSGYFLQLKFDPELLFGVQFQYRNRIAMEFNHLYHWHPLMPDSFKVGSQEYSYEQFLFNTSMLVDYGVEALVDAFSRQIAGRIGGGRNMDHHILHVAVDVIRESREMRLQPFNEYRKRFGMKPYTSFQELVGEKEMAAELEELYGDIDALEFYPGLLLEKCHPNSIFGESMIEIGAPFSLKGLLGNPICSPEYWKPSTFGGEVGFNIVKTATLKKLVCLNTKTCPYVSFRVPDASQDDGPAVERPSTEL

| Compound | melting point [°C] | IC50 [1] [nM] | IC50 [2] [nM] | Ratio COX-1/COX-2 [2] |
| --- | --- | --- | --- | --- |
| Cc1cc(=O)c(Cc2ccccc2)c(-c2ccc(S(C)(=O)=O)cc2)o1 [Compound 37] | 137 | > 100000 | 1080 | >92 |
| Cc1cc(=O)c(-c2ccc(F)cc2F)c(-c2ccc(S(C)(=O)=O)cc2)o1 [Compound 15, 3-(2,4-difluorophenyl)-2-(4-methanesulfonylphenyl)-6-methylpyran-4-one] | 208 | – | 1100 | 90 |
| Cc1cc(=O)c(-c2ccc(F)c(F)c2)c(-c2ccc(S(C)(=O)=O)cc2)o1 [Compound 16, 3-(3,4-difluorophenyl)-2-(4-methanesulfonylphenyl)-6-methylpyran-4-one] | 207 | – | – | – |
| Cc1cc(=O)c(-c2ccc(Br)cc2)c(-c2ccc(S(C)(=O)=O)cc2)o1 [Compound 8, 3-(4-bromophenyl)-2-(4-methanesulfonylphenyl)-6-methylpyran-4-one] | 198 | > 100000 | 1700 | >58 |
| Cc1ccc(-c2c(-c3ccc(S(C)(=O)=O)cc3)oc(C)cc2=O)cc1 [Compound 10, 2-(4-methanesulfonylphenyl)-6-methyl-3-p-tolylpyran-4-one] | 205 | – | – | – |
| Cc1cc(=O)c(-c2ccccc2)c(-c2ccc(S(C)(=O)=O)cc2)o1 [Compound 1, 2-(4-methanesulfonylphenyl) -6-methyl-3-phenylpyran-4-one] | 185 | – | – | – |
| Cc1cc(=O)c(-c2cc(F)ccc2F)c(-c2ccc(S(C)(=O)=O)cc2)o1 [Compound 18, 3-(2,5-difluorophenyl)-2-(4-methanesulfonylphenyl)-6-methylpyran-4-one] | 183 | – | – | – |
| Cc1cc(=O)c(-c2cccc(F)c2)c(-c2ccc(S(C)(=O)=O)cc2)o1 [Compound 3, 3-(3-fluorophenyl)-2-(4-methanesulfonylphenyl)-6-methylpyran-4-one] | 182 | – | – | – |
| Cc1cc(=O)c(-c2ccccc2Cl)c(-c2ccc(S(C)(=O)=O)cc2)o1 [Compound 7, 3-(2-chlorophenyl)-2-(4-methanesulfonylphenyl)-6-methylpyran-4-one] | 148 | – | – | – |
| Cc1cc(=O)c(-c2c(F)cccc2F)c(-c2ccc(S(C)(=O)=O)cc2)o1 [Compound 19, 3-(2,6-difluorophenyl)-2-(4-methanesulfonylphenyl)-6-methylpyran-4-one] | 206 | – | – | – |
| Cc1cc(=O)c(-c2ccc(F)cc2Cl)c(-c2ccc(S(C)(=O)=O)cc2)o1 [Compound 27, 3-(2-chloro-4-fluorophenyl)-2-(4-methanesulfonylphenyl)-6-methylpyran-4-one] | 113 | – | – | – |
| Cc1cc(=O)c(-c2cccc(Cl)c2)c(-c2ccc(S(C)(=O)=O)cc2)o1 [Compound 6, 3-(3-chlorophenyl)-2-(4-methanesulfonylphenyl)-6-methylpyran-4-one] | 131 | – | – | – |
| Cc1cc(=O)c(-c2cc(F)cc(F)c2)c(-c2ccc(S(C)(=O)=O)cc2)o1 [Compound 17, 3-(3,5-difluorophenyl)-2-(4-methanesulfonylphenyl)-6-methylpyran-4-one] | 210 | – | – | – |
| Cc1cc(=O)c(-c2ccc(C)c(Cl)c2)c(-c2ccc(S(C)(=O)=O)cc2)o1 [Compound 29, 3-(3-chloro-4-methylphenyl)-2-(4-methanesulfonylphenyl)-6-methylpyran-4-one] | 176 | – | – | – |
| Cc1cc(=O)c(Oc2ccccc2)c(-c2ccc(S(C)(=O)=O)cc2)o1 [Compound 38, 2-(4-methanesulfonylphenyl)-6-methyl-3-phenoxypyran-4-one] | 169 | – | – | – |
| Cc1cc(=O)c(-c2ccc(C(F)(F)F)cc2)c(-c2ccc(S(C)(=O)=O)cc2)o1 [Compound 13, 2-(4-methanesulfonylphenyl)-6-methyl-3-(4-trifluoromethylphenyl)pyran-4-one] | 172 | – | – | – |
| Cc1cc(=O)c(C2CCCCC2)c(-c2ccc(S(C)(=O)=O)cc2)o1 [Compound 33, 3-cyclohexyl-2-(4-methanesulfonylphenyl)-6-methylpyran-4-one] | 98 to 99 | – | – | – |
| Cc1cc(=O)c(-c2ccc(Cl)cc2Cl)c(-c2ccc(S(C)(=O)=O)cc2)o1 [Compound 21, 3-(2,4-dichlorophenyl)-2-(4-methanesulfonylphenyl)-6-methylpyran-4-one] | 203 | – | – | – |
| Cc1cccc(-c2c(-c3ccc(S(C)(=O)=O)cc3)oc(C)cc2=O)c1 [Compound 11, 2-(4-methanesulfonylphenyl)-6-methyl-3-m-tolylpyran-4-one] | 126 | – | – | – |
| Cc1cc(=O)c(-c2ccccc2C)c(-c2ccc(S(C)(=O)=O)cc2)o1 [Compound 12, 2-(4-methanesulfonylphenyl)-6-methyl-3-o-tolylpyran-4-one] | 91 to 93 | – | – | – |

The next lines start with the values.

| melting point [°C] | IC50 [1] [nM] | IC50 [2] [nM] | Ratio COX-1/COX-2 [2] | Compound |
| --- | --- | --- | --- | --- |
| 162 | – | – | – | COCc1cc(=O)c(-c2ccc(Cl)cc2)c(-c2ccc(S(C)(=O)=O)cc2)o1 (hydrate or solvate) [Compound 63, 3-(4-chlorophenyl)-2-(4-methanesulfonylphenyl)-6-methoxymethylpyran-4-one] |
| 221 | – | – | – | Cc1cc(=O)c(Oc2ccc(Cl)cc2)c(-c2ccc(S(N)(=O)=O)cc2)o1 [Compound 57, 4-[3-(4-chlorophenoxy)-6-methyl-4-oxo-4H-pyran-2-yl]benzenesulfonamide] |
| 236 | – | – | – | CS(=O)(=O)c1ccc(-c2oc(C(=O)O)cc(=O)c2-c2ccc(Cl)cc2)cc1 [Compound 65, 5-(4-chlorophenyl)-6-(4-methanesulfonylphenyl)-4-oxo-4H-pyran-2-carboxylic acid] |
| 189 | 57100 | 800 | 71 | Cc1cc(=O)c(Oc2cc(F)ccc2F)c(-c2ccc(S(C)(=O)=O)cc2)o1 [Compound 47, 3-(2,5-difluorophenoxy)-2-(4-methanesulfonylphenyl)-6-methylpyran-4-one] |
| 218 | – | – | – | Cc1cc(=O)c(-c2ccccc2)c(-c2ccc(S(N)(=O)=O)cc2)o1 [Compound 54, 4-(6-methyl-4-oxo-3-phenyl-4H-pyran-2-yl)benzenesulfonamide] |
| 247 | – | – | – | Cc1cc(=O)c(-c2ccc(F)cc2)c(-c2ccc(S(N)(=O)=O)cc2)o1 [Compound 55, 4-[3 (4-fluorophenyl)-6-methyl-4-oxo-4H-pyran-2-yl]benzenesulfonamide] |
| – | 44000 | 1730 | 25 | COCc1cc(=O)c(-c2ccc(Cl)cc2)c(-c2ccc(S(C)(=O)=O)cc2)o1 [Compound 63, 3-(4-chlorophenyl)-2-(4-methanesulfonylphenyl)-6-methoxymethylpyran-4-one] |
| 113 | – | – | – | CS(=O)(=O)c1ccc(-c2oc(C#N)cc(=O)c2-c2ccc(F)cc2F)cc1 [Compound 59, 5-(2,4-difluorophenyl)-6-(4-methanesulfonylphenyl)-4-oxo-4H-pyran-2-carbonitrile] |
| 128 | – | – | – | Cc1cc(=O)c(-c2ccc(Cl)c(Cl)c2)c(-c2ccc(S(N)(=O)=O)cc2)o1 [Compound 56, 4-[3-(3,4-dichlorophenyl)-6-methyl-4-oxo-4H-pyran-2-yl]benzenesulfonamide] |
| 120 | – | – | – | CS(=O)(=O)c1ccc(-c2oc(CO)cc(=O)c2-c2ccc(Cl)cc2)cc1 [Compound 60, 3-(4-chlorophenyl)-6-hydroxymethyl-2-(4-methanesulfonylphenyl)pyran-4-one] |
| – | 27000 | 140 | 193 | Cc1cc(=O)c(Oc2ccccc2F)c(-c2ccc(S(C)(=O)=O)cc2)o1 [Compound 40, 3-(2-fluorophenoxy)-2-(methanesulfonylphenyl)-6-methylpyran-4-one] |
| – | 41000 | 200 | 205 | Cc1cc(=O)c(Oc2ccccc2Cl)c(-c2ccc(S(C)(=O)=O)cc2)o1 [Compound 42, 3-(2-chlorophenoxy)-2-(methanesulfonylphenyl)-6-methylpyran-4-one] |
| 183 | 39000 | – | – | Cc1ccc(Oc2c(-c3ccc(S(C)(=O)=O)cc3)oc(C)cc2=O)cc1 [Compound 44, 2-(4-methanesulfonylphenyl)-6-methyl-3-(4-methylphenoxy) pyran-4-one] |
